# Data taken from publication PMC9952435, “Characterization of Two Novel AmpC Beta-Lactamases from the Emerging Opportunistic Pathogen, Cedecea neteri” (Antibiotics, 2023).
# Like-named read-outs stand apart in the source and are kept apart here.
# Experiments:
# [1] = system: rAmpC CNE-2 from C. neteri ATCC 33855; type: biochemical; conditions: for Km: Ki or Km,apparent, 200 µM nitrocefin reporter, 500 nM rAmpC, all standard deviations ≤15%
# [2] = system: rAmpC CNE-2 from C. neteri ATCC 33855; type: biochemical; conditions: nitrocefin as substrate; 500 nM rAmpC, pH 7, 30 °C
Compound,Km [1] [µM],further results
"CO/N=C(\C(=O)N[C@@H]1C(=O)N2C(C(=O)O)=C(COC(N)=O)CS[C@H]12)c1ccco1 [Cefuroxime, cefuroxime]",4,–
"CC1(C)S[C@@H]2[C@H](NC(=O)Cc3ccccc3)C(=O)N2[C@H]1C(=O)O [Penicillin, penicillin]",11,–
"CO[C@@]1(NC(=O)Cc2cccs2)C(=O)N2C(C(=O)O)=C(COC(N)=O)CS[C@@H]21 [Cefoxitin, cefoxitin]",54,"Km, fold higher than for CDA-1 from C. davisae ([1]; CNE-2 compared with CDA-1 (ref 13)): 100 fold"
"CC1(C)S[C@@H]2[C@H](NC(=O)[C@H](N)c3ccccc3)C(=O)N2[C@H]1C(=O)O [Ampicillin, ampicillin]",12,–
O=C(Cc1cccs1)N[C@@H]1C(=O)N2C(C(=O)O)=C(/C=C/c3ccc([N+](=O)[O-])cc3[N+](=O)[O-])CS[C@H]12 [nitrocefin],–,Km [2]: 133 ± 11 µM; kcat [2]: 3.13 ± 0.27 s⁻¹
"Cc1nnc(SCC2=C(C(=O)O)N3C(=O)[C@@H](NC(=O)Cn4cnnn4)[C@H]3SC2)s1 [Cefazolin, cefazolin]",100,–
"CC1=C(C(=O)O)N2C(=O)[C@@H](NC(=O)[C@H](N)c3ccccc3)[C@H]2SC1 [Cephalexin, cephalexin]",5,–
"C[C@@H](O)[C@H]1C(=O)N2C(C(=O)O)=C(SCCN=CN)C[C@H]12 [Imipenem, imipenem]",2,Km ([1]; listed as imipenem): ~2 µM
